Tests used:
Format in all cases: cell-based, human
[1] = tested on: TICAE cells; assay: Cell death, Annexin V and Caspase 3/7 live cell imaging, TICAE cells
Method: TICAE and TIME cells were seeded in 96 well plates at a density of 10000 cells/well in 8 biological replicates. After three days, cells were at 100% confluence. At 30 minutes before X-ray exposure, cells were refreshed with 200 μl medium supplemented with Caspase 3/7 reagent (1:1000 dilution) and Annexin V reagent (1:200 dilution) (Essen Bioscience, United Kingdom) with or without 100 μM TAT-Gap19 (Genosphere Biotechnologies, Paris, France). Fluorescence signals were measured from 4 h until 100 h after irradiation by imaging every 2 hours using the IncuCyte ZOOM® system (Essen BioScience, Ann Arbor, Mich., USA). Different channels (TRITC, FITC and phase contrast) and a 10× objective were used. Spectral unmixing set as 8% of red removed from green was applied. The IncuCyte software's processing definition was set to recognize red (Annexin V) and green (Caspase 3/7) stained cells, making use of the Top-Hat background subtraction method. Fluorescence signal was normalized to cell count.

[2] = tested on: TIME cells; assay: Cytokine detection (Magnetic Luminex) in supernatant after irradiation, TIME cells
Method: TICAE and TIME cells were seeded in a 6-well plate at a density of 2.5×10^5 cells/well in 5 to 6 biological replicates. Two to three days later, cells reached 100% confluence. At 30 minutes before X-ray exposure, cells were refreshed with medium with or without 100 μM TAT-Gap19 (Genosphere Biotechnologies, Paris, France). At 24 h, 48 h, 72 h and 7 d after irradiation, the supernatant was collected. Medium was changed only for the 7 d time point experiment at the fourth day with fresh medium alone or with medium supplemented with 100 μM TAT-Gap19. For the simultaneous detection of multiple cytokines in the supernatants, the Magnetic Luminex® Assay (R&D systems, Minneapolis, […]) was used following manufacturer's instructions. Briefly, supernatants, standards and microparticles were incubated into a 96-well plate which was pre-coated with cytokine-specific antibodies. The immobilized antibodies were able to bind the cytokines of interest after 2 h incubation, then the plate was washed and incubation with a biotinylated antibody cocktail specific to the cytokines of interest was performed for 1 h. A second wash was performed to remove the unbound biotinylated antibodies. Further, a streptavidin-phycoerythrin conjugate was added to each well to bind to the biotinylated antibodies. After a final wash, the microparticles were resuspended in buffer and read using the Luminex® MAGPIX Analyzer (R&D systems, Minneapolis, […]).
In order to normalize to cell number, DAPI staining was performed for the 48 h after irradiation time point. Briefly, cells were washed with phosphate buffered saline (PBS) and fixed with 4% paraformaldehyde (PFA) for 15 minutes at room temperature. Afterwards, the cells were washed with PBS and stained with 1 μg/mL 4′,6-Diamidine-2′-phenylindole (DAPI) dissolved in 1×TBST, 0.005 g/v % TSA blocking powder (PerkinElmer, FP1012) (TNB). After one hour, cells were washed with PBS and DAPI signals were visualized with the Nikon Eclipse Ti automated inverted wide-field epifluorescence microscope equipped with a 5× magnification (Plan Fluor, numerical aperture 0.6) dry objective and a Nikon IE2000-E camera controlled by the MS Elements software. The intensity of the DAPI signals was determined with the FIJI software. Cell count for 24 h after irradiation experiment was performed by Moxi Z Mini Automated Cell Counter (ORFLO Technologies, Ketchum, Id., USA) after trypsinization. For the 72 h and 7 d post-irradiation cell counts, we used IncuCyte ZOOM™ phase contrast imaging based on 49 images taken per well with the 10× objective.

[3] = tested on: TICAE cells; assay: DNA damage, gamma H2AX and TP53BP1 foci, TICAE cells; settings: 100 μM TAT-Gap19, 0.1 and 5 Gy, 1 h p.i.
Method: To detect DNA double strand breaks after IR, TICAE and TIME cells were seeded in Nunc™ Lab-Tek™ Chamber Slide (Thermo Fisher Scientific, Asse, Belgium) in 8 replicates, at seeding density of 50 000 cells/well. Two days later, cells reached 100% confluence. At 30 min before IR, a fresh medium was added to the cells with or without 100 μM TAT-Gap19. At 1 h post irradiation, cells were fixed with 2% PFA (Sigma-Aldrich Co. LCC, Diegem, Belgium) and permeabilized with 0.25% Triton X-100 (Sigma-Aldrich Co. LCC, Diegem, Belgium) in PBS. Cells were blocked for 1 h in 1% normal goat serum (Thermo Fisher Scientific, Asse, Belgium) in Tris-NaCl (Perkin Elmer, Brussels, Belgium). Thereafter, staining with 1/300 primary anti-gamma H2AX antibody (Merck-Millipore #05-636) and 1/1000 anti-TP53BP1 antibody (Novus Biologicals #NB100-304) was performed for 1 h at 37° C. After washing 3 times with PBS, secondary Alexa Fluor 488 and 568 antibodies (Life Technologies, Merelbeke, Belgium) were applied for 1 h at 37° C. Finally, the slides were mounted using ProLong Diamond Antifade Mountant with DAPI (Life Technologies, Merelbeke, Belgium), and cells were visualized with an Eclipse Ti automated inverted wide-field epifluorescence microscope (Nikon, Brussels, Belgium) equipped with a 20×Plan Fluor objective (NA 0.6) and an Andor Ixon EMCCD camera, controlled by the MS Elements software. […]

[4] = 100 μM TAT-Gap19, 0 Gy and 0.1 Gy, from 4-16 h p.i. until the end
[5] = 100 μM TAT-Gap19, 5 Gy, from 12 h p.i. until end of recording (100 h)

**Q.** Which results are given for “TAT-Gap19: connexin mimetic peptide, amino-acids 128-136 of the CL of Cx43 (SEQ ID NO: 2), Gap19 linked to TAT sequence; Cx43 hemichannel inhibitor (YGRKKRRQRRRKQIEIKKFK)”?
**A.** Annexin V [1, 4]: significantly reduced; Caspase 3/7 activity [1, 4]: significantly reduced; Annexin V [1, 5]: significantly reduced; Caspase 3/7 activity [1, 5]: significantly reduced; E-selectin readout ([2]; 100 μM TAT-Gap19, 0.1 Gy): decreased; IL-6 readout ([2]; 100 μM TAT-Gap19, 0.1 Gy): decreased; IL-8 readout ([2]; 100 μM TAT-Gap19, 0.1 Gy): decreased; PECAM-1 readout ([2]; 100 μM TAT-Gap19, 0.1 Gy): decreased; TNF-α readout ([2]; 100 μM TAT-Gap19, 0.1 Gy): decreased; VCAM-1 readout ([2]; 100 μM TAT-Gap19, 0.1 Gy): decreased; CRP (radiation-induced increase) ([2]; 100 μM TAT-Gap19, 5 Gy, 24 h): significantly reduced the increase; E-Selectin (radiation-induced increase) ([2]; 100 μM TAT-Gap19, 5 Gy, 24 h): significantly reduced the increase; ICAM-1 (radiation-induced increase) ([2]; 100 μM TAT-Gap19, 5 Gy, 24 h): significantly reduced the increase; IL-1B (radiation-induced increase) ([2]; 100 μM TAT-Gap19, 5 Gy, 24 h): significantly reduced the increase; MCP-1 (radiation-induced increase) ([2]; 100 μM TAT-Gap19, 5 Gy, 24 h): significantly reduced the increase; PECAM-1 (radiation-induced increase) ([2]; 100 μM TAT-Gap19, 5 Gy, 24 h): significantly reduced the increase; TNF-α (radiation-induced increase) ([2]; 100 μM TAT-Gap19, 5 Gy, 24 h): significantly reduced the increase; IL-6 (radiation-induced increase) ([2]; 100 μM TAT-Gap19, 5 Gy, 24 h, 48 h and 7 d p.i.): significantly reduced these responses; Endothelin-1 (radiation-induced increase) ([2]; 100 μM TAT-Gap19, 5 Gy, 24 h, 72 h and 7 d p.i.): significantly decreased these responses; VCAM-1 (radiation-induced increase) ([2]; 100 μM TAT-Gap19, 5 Gy, 24 h and 7 d p.i.): significantly reduced these responses; IL-8 levels ([2]; 100 μM TAT-Gap19, 5 Gy, 7 d p.i.): significantly decreased IL-8 levels; Endothelin-1 readout ([2]; 100 μM TAT-Gap19, control and 0.1 Gy): decreased; IL-6 readout ([2]; 100 μM TAT-Gap19, control and 0.1 Gy, 7 d p.i.): increased; gamma H2AX, TP53BP1 and colocalized foci (radiation-induced DNA damage) [3]: not affected

From patent US20200384072A1, “THERAPY OF IONIZING RADIATION-INDUCED DISORDERS” (SCK-CEN, priority 2019, published 2020)
